{"source": "PubChem BioAssay AID2060611", "about": "(Molecular Pharmacology Branch, DTP, NCI, 2025);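 further: spheroids exposed to agents for seven days before readout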;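 on viability, T/C: 100% = DMSO vehicle control viability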", "tested_on": "628569-122-R-J1-PDC complex spheroid viability", "assay": "Anticancer human tumor 628569-122-R-J1-PDC patient-derived head and neck squamous carcinoma cell line growth inhibition [CLK]", "conditions": "for IC50: curve of first compound; for viability, T/C: stronger effect = lower value", "outline": "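Patient-derived tumor cells grown as complex spheroids with HUVEC endothelial cells and mesenchymal stem cells, treated with drug combinations. Concentrations descend in half-log steps from near clinical Cmax, or from 10 microM if Cmax unknown.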", "key": {"[1]": {"conditions": "second compound 0.0316 µM, first compound 0.0316 µM"}, "[2]": {"conditions": "second compound 0.0316 µM, first compound 0.1 µM"}, "[3]": {"conditions": "second compound 0.1 µM, first compound 0.0316 µM"}, "[4]": {"conditions": "second compound 0.1 µM, first compound 0.1 µM"}, "[5]": {"conditions": "second compound 0.316 µM, first compound 0.0316 µM"}, "[6]": {"conditions": "second compound 0.316 µM, first compound 0.1 µM"}, "[7]": {"conditions": "second compound 1 µM, first compound 0.0316 µM"}, "[8]": {"conditions": "second compound 1 µM, first compound 0.1 µM"}, "[9]": {"conditions": "second compound 3.16 µM, first compound 0.0316 µM"}, "[10]": {"conditions": "second compound 3.16 µM, first compound 0.1 µM"}, "[11]": {"conditions": "second compound 10 µM, first compound 0.0316 µM"}, "[12]": {"conditions": "second compound 10 µM, first compound 0.1 µM"}}, "data": [{"smiles": "Cn1ncnc1[C@H]1c2n[nH]c(=O)c3cc(F)cc(c23)N[C@@H]1c1ccc(F)cc1", "note": "+ CNC(=O)c1ccc(Nc2nc(OC3CCCC3)c3c(-c4ccc5nc(C)oc5c4)c[nH]c3n2)c(OC)c1", "values": [{"measurement": "IC50", "setting": "second compound 0.0316 µM", "result": "> 100", "unit": "nM"}, {"measurement": "IC50", "setting": "second compound 0.1 µM", "result": 37.6, "unit": "nM"}, {"measurement": "IC50", "setting": "second compound 0.316 µM", "result": 1.53, "unit": "nM"}, {"measurement": "IC50", "setting": "second compound 1 µM", "result": "< 0.316", "unit": "nM"}, {"measurement": "IC50", "setting": "second compound 3.16 µM", "result": "< 0.316", "unit": "nM"}, {"measurement": "IC50", "setting": "second compound 10 µM", "result": "< 0.316", "unit": "nM"}, {"measurement": "viability, T/C", "setting": "second compound 0.0316 µM, first compound 0.000316 µM", "result": 86.7, "unit": "%"}, {"measurement": "viability, T/C", "setting": "second compound 0.0316 µM, first compound 0.001 µM", "result": 90.1, "unit": "%"}, {"measurement": "viability, T/C", "setting": "second compound 0.0316 µM, first compound 0.00316 µM", "result": 82.7, "unit": "%"}, {"measurement": "viability, T/C", "setting": "second compound 0.0316 µM, first compound 0.01 µM", "result": 71.3, "unit": "%"}, {"measurement": "viability, T/C", "setting": "[1]", "result": 78, "unit": "%"}, {"measurement": "viability, T/C", "setting": "[2]", "result": 64.9, "unit": "%"}, {"measurement": "viability, T/C", "setting": "second compound 0.1 µM, first compound 0.000316 µM", "result": 61.4, "unit": "%"}, {"measurement": "viability, T/C", "setting": "second compound 0.1 µM, first compound 0.001 µM", "result": 53.4, "unit": "%"}, {"measurement": "viability, T/C", "setting": "second compound 0.1 µM, first compound 0.00316 µM", "result": 60.1, "unit": "%"}, {"measurement": "viability, T/C", "setting": "second compound 0.1 µM, first compound 0.01 µM", "result": 53.7, "unit": "%"}, {"measurement": "viability, T/C", "setting": "[3]", "result": 51, "unit": "%"}, {"measurement": "viability, T/C", "setting": "[4]", "result": 45.9, "unit": "%"}, {"measurement": "viability, T/C", "setting": "second compound 0.316 µM, first compound 0.000316 µM", "result": 47.7, "unit": "%"}, {"measurement": "viability, T/C", "setting": "second compound 0.316 µM, first compound 0.001 µM", "result": 48.4, "unit": "%"}, {"measurement": "viability, T/C", "setting": "second compound 0.316 µM, first compound 0.00316 µM", "result": 51.9, "unit": "%"}, {"measurement": "viability, T/C", "setting": "second compound 0.316 µM, first compound 0.01 µM", "result": 54.4, "unit": "%"}, {"measurement": "viability, T/C", "setting": "[5]", "result": 54.5, "unit": "%"}, {"measurement": "viability, T/C", "setting": "[6]", "result": 39.6, "unit": "%"}, {"measurement": "viability, T/C", "setting": "second compound 1 µM, first compound 0.000316 µM", "result": 43.9, "unit": "%"}, {"measurement": "viability, T/C", "setting": "second compound 1 µM, first compound 0.001 µM", "result": 39.5, "unit": "%"}, {"measurement": "viability, T/C", "setting": "second compound 1 µM, first compound 0.00316 µM", "result": 48.1, "unit": "%"}, {"measurement": "viability, T/C", "setting": "second compound 1 µM, first compound 0.01 µM", "result": 39, "unit": "%"}, {"measurement": "viability, T/C", "setting": "[7]", "result": 40.1, "unit": "%"}, {"measurement": "viability, T/C", "setting": "[8]", "result": 40.2, "unit": "%"}, {"measurement": "viability, T/C", "setting": "second compound 3.16 µM, first compound 0.000316 µM", "result": 37.5, "unit": "%"}, {"measurement": "viability, T/C", "setting": "second compound 3.16 µM, first compound 0.001 µM", "result": 45.5, "unit": "%"}, {"measurement": "viability, T/C", "setting": "second compound 3.16 µM, first compound 0.00316 µM", "result": 48.5, "unit": "%"}, {"measurement": "viability, T/C", "setting": "second compound 3.16 µM, first compound 0.01 µM", "result": 41.5, "unit": "%"}, {"measurement": "viability, T/C", "setting": "[9]", "result": 37.7, "unit": "%"}, {"measurement": "viability, T/C", "setting": "[10]", "result": 34.3, "unit": "%"}, {"measurement": "viability, T/C", "setting": "second compound 10 µM, first compound 0.000316 µM", "result": 47.4, "unit": "%"}, {"measurement": "viability, T/C", "setting": "second compound 10 µM, first compound 0.001 µM", "result": 39.6, "unit": "%"}, {"measurement": "viability, T/C", "setting": "second compound 10 µM, first compound 0.00316 µM", "result": 41.4, "unit": "%"}, {"measurement": "viability, T/C", "setting": "second compound 10 µM, first compound 0.01 µM", "result": 36.7, "unit": "%"}, {"measurement": "viability, T/C", "setting": "[11]", "result": 38, "unit": "%"}, {"measurement": "viability, T/C", "setting": "[12]", "result": 31.3, "unit": "%"}]}, {"smiles": "COC1C=CCC(C)C(C)S(=O)(=O)NC(=O)c2ccc3c(c2)N(CC2CCC21)CC1(CCCc2cc(Cl)ccc21)CO3", "note": "(centres undefined) + CN1CCN(c2cc(C(=O)Nc3cc4cc(-c5cnn(C)c5)ccc4cn3)ccn2)CC1", "values": [{"measurement": "IC50", "setting": "second compound 0.0316 µM", "result": 1750, "unit": "nM"}, {"measurement": "IC50", "setting": "second compound 0.1 µM", "result": 773, "unit": "nM"}, {"measurement": "IC50", "setting": "second compound 0.316 µM", "result": "< 31.6", "unit": "nM"}, {"measurement": "IC50", "setting": "second compound 1 µM", "result": "< 31.6", "unit": "nM"}, {"measurement": "IC50", "setting": "second compound 3.16 µM", "result": "< 31.6", "unit": "nM"}, {"measurement": "IC50", "setting": "second compound 10 µM", "result": "< 31.6", "unit": "nM"}, {"measurement": "viability, T/C", "setting": "[1]", "result": 95.5, "unit": "%"}, {"measurement": "viability, T/C", "setting": "[2]", "result": 89.9, "unit": "%"}, {"measurement": "viability, T/C", "setting": "second compound 0.0316 µM, first compound 0.316 µM", "result": 83.1, "unit": "%"}, {"measurement": "viability, T/C", "setting": "second compound 0.0316 µM, first compound 1 µM", "result": 51.5, "unit": "%"}, {"measurement": "viability, T/C", "setting": "second compound 0.0316 µM, first compound 3.16 µM", "result": 55, "unit": "%"}, {"measurement": "viability, T/C", "setting": "second compound 0.0316 µM, first compound 10 µM", "result": 40.1, "unit": "%"}, {"measurement": "viability, T/C", "setting": "[3]", "result": 85, "unit": "%"}, {"measurement": "viability, T/C", "setting": "[4]", "result": 68.4, "unit": "%"}, {"measurement": "viability, T/C", "setting": "second compound 0.1 µM, first compound 0.316 µM", "result": 63.3, "unit": "%"}, {"measurement": "viability, T/C", "setting": "second compound 0.1 µM, first compound 1 µM", "result": 40.8, "unit": "%"}, {"measurement": "viability, T/C", "setting": "second compound 0.1 µM, first compound 3.16 µM", "result": 46.4, "unit": "%"}, {"measurement": "viability, T/C", "setting": "second compound 0.1 µM, first compound 10 µM", "result": 43.6, "unit": "%"}, {"measurement": "viability, T/C", "setting": "[5]", "result": 36.8, "unit": "%"}, {"measurement": "viability, T/C", "setting": "[6]", "result": 34, "unit": "%"}, {"measurement": "viability, T/C", "setting": "second compound 0.316 µM, first compound 0.316 µM", "result": 30.2, "unit": "%"}, {"measurement": "viability, T/C", "setting": "second compound 0.316 µM, first compound 1 µM", "result": 20.7, "unit": "%"}, {"measurement": "viability, T/C", "setting": "second compound 0.316 µM, first compound 3.16 µM", "result": 13.6, "unit": "%"}, {"measurement": "viability, T/C", "setting": "second compound 0.316 µM, first compound 10 µM", "result": 13.3, "unit": "%"}, {"measurement": "viability, T/C", "setting": "[7]", "result": 7.48, "unit": "%"}, {"measurement": "viability, T/C", "setting": "[8]", "result": 5.89, "unit": "%"}, {"measurement": "viability, T/C", "setting": "second compound 1 µM, first compound 0.316 µM", "result": 7.05, "unit": "%"}, {"measurement": "viability, T/C", "setting": "second compound 1 µM, first compound 1 µM", "result": 7.13, "unit": "%"}, {"measurement": "viability, T/C", "setting": "second compound 1 µM, first compound 3.16 µM", "result": 5.61, "unit": "%"}, {"measurement": "viability, T/C", "setting": "second compound 1 µM, first compound 10 µM", "result": 7.24, "unit": "%"}, {"measurement": "viability, T/C", "setting": "[9]", "result": 5.37, "unit": "%"}, {"measurement": "viability, T/C", "setting": "[10]", "result": 6.94, "unit": "%"}, {"measurement": "viability, T/C", "setting": "second compound 3.16 µM, first compound 0.316 µM", "result": 7.7, "unit": "%"}, {"measurement": "viability, T/C", "setting": "second compound 3.16 µM, first compound 1 µM", "result": 7.72, "unit": "%"}, {"measurement": "viability, T/C", "setting": "second compound 3.16 µM, first compound 3.16 µM", "result": 7.14, "unit": "%"}, {"measurement": "viability, T/C", "setting": "second compound 3.16 µM, first compound 10 µM", "result": 6.03, "unit": "%"}, {"measurement": "viability, T/C", "setting": "[11]", "result": 3.03, "unit": "%"}, {"measurement": "viability, T/C", "setting": "[12]", "result": 1.85, "unit": "%"}, {"measurement": "viability, T/C", "setting": "second compound 10 µM, first compound 0.316 µM", "result": 2.06, "unit": "%"}, {"measurement": "viability, T/C", "setting": "second compound 10 µM, first compound 1 µM", "result": 6.57, "unit": "%"}, {"measurement": "viability, T/C", "setting": "second compound 10 µM, first compound 3.16 µM", "result": 2.43, "unit": "%"}, {"measurement": "viability, T/C", "setting": "second compound 10 µM, first compound 10 µM", "result": 1.39, "unit": "%"}]}]}
